Source: PubChem BioAssay (NCI)
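Five compound concentrations were applied to cells in 96-well plates for 48 hours; endpoints were derived by simple linear interpolation of the resulting dose-response curve. Abbreviation: GI50, concentration required for 50% inhibition of growth. At the TGI there is no net growth.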

Legend:
Assay in all cases: NCI anticancer screen, dose series, 48 h
[1] = tested on: OVCAR-5 ovarian
[2] = tested on: LOX IMVI melanoma
[3] = tested on: SN12C renal
[4] = tested on: RXF 393 renal
[5] = tested on: SK-MEL-2 melanoma
[6] = tested on: HCT-15 colon
[7] = tested on: NCI-H23 lung
[8] = tested on: HOP-62 NSCLC
[9] = tested on: NCI/ADR-RES ovarian
[10] = tested on: PC-3 prostate

| Structure (SMILES) | TGI [1] [µM] | TGI [2] [µM] | TGI [3] [µM] | TGI [4] [µM] | TGI [5] [µM] | TGI [6] [µM] | TGI [7] [µM] | TGI [8] [µM] | GI50 [1] [µM] | GI50 [2] [µM] | GI50 [3] [µM] | GI50 [9] [µM] | TGI [9] [µM] | GI50 [10] [µM] | TGI [10] [µM] | GI50 [4] [µM] | GI50 [5] [µM] | GI50 [6] [µM] | GI50 [8] [µM] | GI50 [7] [µM] |
| --- | --- | --- | --- | --- | --- | --- | --- | --- | --- | --- | --- | --- | --- | --- | --- | --- | --- | --- | --- | --- |
| Cc1cc(=O)[nH]c(CNC(=O)c2cccc(C(=O)NCc3cc(=O)[nH]c(C)n3)c2)n1 | > 100 | > 100 | > 100 | > 100 | > 100 | > 100 | > 100 | > 100 | – | – | – | – | – | – | – | – | – | – | – | – |
| c1ccc([As]=[As]c2ccccc2)cc1 (stereo not given) | 3.07 | 0.653 | 3.07 | 2.04 | 3.47 | 2.24 | – | 3.33 | 1.5 | 0.117 | 1.21 | 2.16 | 6.32 | 1.27 | 2.64 | 0.58 | 1.62 | 0.416 | 1.78 | – |
| COC(=O)/C=c1\s/c(=C\C(=O)OC)c2ccccc12 | > 100 | > 100 | > 100 | > 100 | > 100 | > 100 | > 100 | – | – | – | – | – | – | – | – | – | – | – | – | – |
| CN(/N=C/c1cccc2cccnc12)c1c([N+](=O)[O-])cc([N+](=O)[O-])cc1[N+](=O)[O-] | > 100 | > 100 | > 100 | > 100 | > 100 | > 100 | > 100 | > 100 | – | – | – | – | – | – | – | – | – | – | – | – |
| c1ccc(P(=C2c3ccccc3-c3ccccc32)(c2ccccc2)c2ccccc2)cc1 | 48.3 | 9.38 | 10.9 | 93.8 | 23.5 | 52.2 | 9.97 | 8.17 | – | – | – | – | – | – | – | – | – | – | – | – |
| Cc1nc2sccn2c1C(=O)NC(=O)Nc1ccc(Cl)cc1 | > 100 | > 100 | > 100 | > 100 | > 100 | > 100 | > 100 | > 100 | – | – | – | – | – | – | – | – | – | – | – | – |
| O=C(CCc1nnc2s/c(=C\c3ccccc3Cl)c(=O)n12)Nc1cc(Cl)ccc1Cl | > 100 | > 100 | > 100 | > 100 | > 100 | > 100 | > 100 | > 100 | – | – | – | – | – | – | – | – | – | – | – | – |
| C=CCOC(=O)C1CCC(=O)N1C(=O)C(Cl)Cl (stereo not given) | > 100 | > 100 | > 100 | – | > 100 | > 100 | > 100 | > 100 | – | – | – | – | – | – | – | – | – | – | – | – |
| Cc1cn(-c2ccc(S(C)(=O)=O)cc2)c(-c2ccc(Cl)cc2)n1 | > 100 | > 100 | > 100 | – | > 100 | > 100 | > 100 | > 100 | > 100 | > 100 | > 100 | > 100 | > 100 | > 100 | > 100 | – | > 100 | > 100 | > 100 | > 100 |
| CN(C)CCNC(=O)c1cccc2ccc(-c3ccc(-c4ccccc4)cc3)nc12 | 13.9 | 3.09 | 20.2 | 6.15 | 32.7 | 4.14 | 16.6 | 10.3 | – | – | – | – | – | – | – | – | – | – | – | – |
| COc1cc(C2C3=C(COC3=O)N(CCO)c3cc4c(cc32)OCO4)cc(OC)c1O (stereo not given) | > 50 | > 50 | > 50 | 2.11 | – | > 50 | > 38 | > 50 | 23.1 | 2.5 | > 12.1 | 11.3 | > 50 | 1.54 | > 50 | 0.576 | – | 8.01 | 2.35 | 1.84 |
| O=C(C/C(CCC(=O)N(Cc1ccccc1)Cc1ccccc1)=N/Nc1ccc([N+](=O)[O-])cc1[N+](=O)[O-])c1ccccc1 | > 100 | > 100 | – | – | > 100 | > 100 | > 100 | > 100 | – | – | – | – | – | – | – | – | – | – | – | – |
| COc1cc2c(cc1C1=NC(C)(C)CO1)OCO2 | – | – | > 100 | > 100 | > 100 | > 100 | > 100 | > 100 | – | – | – | – | – | – | – | – | – | – | – | – |
| Cc1cc(Nc2cc(N3CCN(C)CC3)nc(Sc3ccc(NC(=O)C4CC4)cc3)n2)n[nH]1 | – | 3.87 | > 10 | > 10 | > 10 | > 10 | > 10 | > 10 | – | 0.424 | 3.59 | > 10 | > 10 | 4.24 | > 10 | 2.17 | 5.51 | 5.38 | 2.99 | 3.19 |
| CC[N+](C)(CC)CC(C)(C)C(=O)/C=C/c1ccc(/C=C/C(=O)C(C)(C)C[N+](C)(CC)CC)cc1 | > 100 | > 100 | > 100 | > 100 | – | > 100 | > 100 | > 100 | – | – | – | – | – | – | – | – | – | – | – | – |
| N#Cc1ccc2cc3c(cc2c1)OCO3 | > 100 | > 100 | > 100 | > 100 | > 100 | > 100 | > 100 | > 100 | – | – | – | – | – | – | – | – | – | – | – | – |
| O=C1c2ccccc2C(=O)c2sc(Nc3ccccc3Cl)nc21 | 41 | 6.63 | 21.1 | 30 | 34.5 | 29.6 | 17.5 | 33.3 | – | – | – | – | – | – | 25.9 | – | – | – | – | – |
| C#COc1cccc(Nc2ncnc3cc(NC(=O)[C@H](C)Cl)ccc23)c1 | > 62.5 | > 62.5 | > 62.5 | 39.3 | – | > 62.5 | > 62.5 | > 62.5 | 3.84 | 2.54 | 3.69 | 2.4 | > 62.5 | 3.23 | > 62.5 | 3.34 | – | 2.5 | 6.35 | 7.66 |
| CC1NC(=O)C2=C1C(N)=NC(=O)C2 (stereo not given) | > 100 | > 100 | > 100 | > 100 | > 100 | > 100 | > 100 | – | – | – | – | – | – | – | – | – | – | – | – | – |
